# Values quoted from earlier work in US20050064023A1, “Compound” (priority 2001, published 2005).
# Conditions: in combination with DOPE
Compound,enhancement compared to the non-disulfide analogs,cellular toxicity compared to DC-Chol liposomes,transfection efficiency compared to DC-Chol liposomes
"1,2-dioleyl-sn-glycero-3-succinyl-2-hydroxyethyl-disulfide omithine [DOGSDSO]",up to 50 times,–,–
"CC(C)CCC[C@@H](C)[C@H]1CC[C@H]2[C@@H]3CC=C4C[C@@H](OC(=O)CSSCC(=O)NCCN(CCN)CCN)CC[C@]4(C)[C@H]3CC[C@]12C [CHDTAEA, cholesteryl-hemi-dithio-diglycolyl-tris(aminoethyl)-amine]",–,decrease of cellular toxicity,increase of transfection efficiency
